IC50 data for 18 compounds are collected here from patent US8148391B2 (Cephalon, Inc., priority 2006, dated 2012).

By IC50 is commonly meant the concentration at which inhibition is half-maximal.

Experiment [1] concerns the target T1, c-Met (cytoplasmic domain) (Homo sapiens, UniProt P08581).
T1 construct: 10 ng/mL c-Met (cytoplasmic domain, Invitrogen Corporation #PV3143); purchased Invitrogen Corporation PV3143
The experiment is described as follows: c-Met Kinase Assay (same methods as for ALK, with modifications). The class given is biochemical. The conditions noted are these: 1 μM ATP (Km level); read-out: cMet Activity (c-Met Kinase Inhibition, IC50). The procedure, abridged: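 Steps: coat wells with PLC-γ (10 μg/mL, Tris-buffered saline); add 10 ng/mL c-Met cytoplasmic domain to initiate; incubate 15 min, 37° C; detect phosphoproduct via Eu-N1 PT66 antibody.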

The target of experiment [2] is T2, baculovirus-expressed ALK (Homo sapiens, UniProt Q9UM73).
T2 construct: host or cells: baculovirus expression system
The experiment is described as follows: ALK Kinase Assay (ELISA-type, time-resolved fluorescence). It counts as biochemical. Conditions: 1 μM ATP (Km level); read-out: ALK Activity (ALK Kinase Inhibition, IC50). The procedure, abridged: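 Wells were coated with phospholipase C-γ at 10 μg/mL in Tris-buffered saline. Adding 30 ng/ml enzyme started the reaction, which ran at 37° C for 15 minutes before Eu-N1 PT66 antibody detection. Percent inhibition versus log10 concentration gave IC50 by variable-slope fit.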
Background: ELISA stands for enzyme-linked immunosorbent assay.

T2 sequence (Q9UM73 19-1620): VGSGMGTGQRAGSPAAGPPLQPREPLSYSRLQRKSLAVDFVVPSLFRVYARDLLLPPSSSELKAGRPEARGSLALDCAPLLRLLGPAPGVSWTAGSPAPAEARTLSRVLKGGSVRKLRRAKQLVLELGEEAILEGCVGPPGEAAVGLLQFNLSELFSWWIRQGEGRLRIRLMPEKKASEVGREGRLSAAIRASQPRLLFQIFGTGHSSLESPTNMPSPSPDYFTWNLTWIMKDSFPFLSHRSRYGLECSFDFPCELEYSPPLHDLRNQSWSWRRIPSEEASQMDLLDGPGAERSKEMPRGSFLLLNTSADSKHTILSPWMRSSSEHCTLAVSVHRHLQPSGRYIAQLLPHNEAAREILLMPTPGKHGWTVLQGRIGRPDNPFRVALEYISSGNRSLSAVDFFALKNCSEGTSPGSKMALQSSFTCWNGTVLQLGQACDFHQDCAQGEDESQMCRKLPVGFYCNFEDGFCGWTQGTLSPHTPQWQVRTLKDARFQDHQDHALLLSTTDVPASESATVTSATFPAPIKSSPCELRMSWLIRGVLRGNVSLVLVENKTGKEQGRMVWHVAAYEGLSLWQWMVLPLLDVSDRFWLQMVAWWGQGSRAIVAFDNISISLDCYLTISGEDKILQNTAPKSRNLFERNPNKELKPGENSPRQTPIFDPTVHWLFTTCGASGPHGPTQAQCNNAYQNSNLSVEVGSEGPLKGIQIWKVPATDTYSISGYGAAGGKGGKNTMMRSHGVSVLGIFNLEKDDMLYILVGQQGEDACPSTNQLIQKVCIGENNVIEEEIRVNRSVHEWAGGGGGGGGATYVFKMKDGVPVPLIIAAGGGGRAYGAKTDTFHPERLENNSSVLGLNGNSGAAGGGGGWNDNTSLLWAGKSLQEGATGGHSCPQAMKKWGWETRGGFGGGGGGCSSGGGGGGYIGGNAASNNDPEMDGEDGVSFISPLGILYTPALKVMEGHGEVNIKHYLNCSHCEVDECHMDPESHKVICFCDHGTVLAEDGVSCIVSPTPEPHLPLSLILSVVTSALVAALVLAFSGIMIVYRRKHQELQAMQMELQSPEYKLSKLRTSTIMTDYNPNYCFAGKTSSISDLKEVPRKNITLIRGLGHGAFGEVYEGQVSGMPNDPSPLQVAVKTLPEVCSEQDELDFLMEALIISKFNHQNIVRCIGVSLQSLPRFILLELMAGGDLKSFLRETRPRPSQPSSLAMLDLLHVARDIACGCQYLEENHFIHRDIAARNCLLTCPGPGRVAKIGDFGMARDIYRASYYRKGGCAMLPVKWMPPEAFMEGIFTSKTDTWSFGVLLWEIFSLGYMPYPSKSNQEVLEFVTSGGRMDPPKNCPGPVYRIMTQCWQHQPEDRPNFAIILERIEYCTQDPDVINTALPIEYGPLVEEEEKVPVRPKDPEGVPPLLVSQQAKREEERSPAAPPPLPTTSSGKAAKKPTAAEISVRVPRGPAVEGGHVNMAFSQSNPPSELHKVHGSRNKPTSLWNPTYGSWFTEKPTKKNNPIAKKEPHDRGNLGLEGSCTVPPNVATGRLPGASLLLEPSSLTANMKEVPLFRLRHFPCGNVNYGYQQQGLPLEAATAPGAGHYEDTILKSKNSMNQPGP
T1 sequence (P08581 956-1390 limits assumed): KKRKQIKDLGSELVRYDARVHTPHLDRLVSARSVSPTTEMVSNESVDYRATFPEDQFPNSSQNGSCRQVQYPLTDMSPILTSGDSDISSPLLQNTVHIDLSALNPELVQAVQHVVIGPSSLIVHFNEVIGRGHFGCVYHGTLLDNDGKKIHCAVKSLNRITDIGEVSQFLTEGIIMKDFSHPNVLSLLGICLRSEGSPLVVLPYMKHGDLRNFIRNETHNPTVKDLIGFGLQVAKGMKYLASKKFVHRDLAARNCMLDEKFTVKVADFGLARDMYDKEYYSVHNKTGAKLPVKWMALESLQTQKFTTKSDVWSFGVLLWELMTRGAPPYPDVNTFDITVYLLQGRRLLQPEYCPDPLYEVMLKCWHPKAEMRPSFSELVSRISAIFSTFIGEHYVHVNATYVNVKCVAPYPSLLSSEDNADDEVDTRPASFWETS

With `CS(=O)(=O)Nc1ccccc1Nc1nc(Nc2ccc3c(c2)CNCCS3)ncc1Cl` [Example 518], the IC50 in experiment [1] is 1000 to 10000 nM; in experiment [2], under 100 nM.

Regarding `CS(=O)(=O)N[C@@H]1CCCC[C@H]1Nc1nc(Nc2ccc3c(c2)CNCCS3)ncc1Cl` [Example 519, N-{(1R,2R)-2-[5-Chloro-2-(6,7,8,9-tetrahydro-5-thia-8-aza-benzocyclohepten-2-ylamino)-pyrimidin-4-ylamino]-cyclohexyl}-methanesulfonamide], the IC50 is 1000 to 10000 nM in experiment [1] and under 100 nM in experiment [2].

Take `CS(=O)(=O)N[C@@H]1CCCC[C@H]1Nc1nc(Nc2ccc3c(c2)CNCCS3(=O)=O)ncc1Cl` [Example 520, N-{(1R,2R)-2-[5-Chloro-2-(5,5-dioxo-6,7,8,9-tetrahydro-5H-5lambda*6*-thia-8-aza-benzoylcyclohepten-2-ylamino)-pyrimidin-4-ylamino]-cyclohexyl}-methanesulfonamide]: the concentration for half-maximal inhibition (IC50) in experiment [1] was 1000 to 10000 nM; in experiment [2], 100 to 1000 nM.

Regarding `COCCN1CCSc2ccc(Nc3ncc(Cl)c(N[C@@H]4CCCC[C@H]4NS(C)(=O)=O)n3)cc2C1` [Example 521, N-((1R,2R)-2-{5-Chloro-2-[8-(2-methoxy-ethyl)-6,7,8,9-tetrahydro-5-thia-8-aza-benzocyclohepten-2-ylamino]pyrimidin-4-ylamino}-cyclohexyl)-methanesulfonamide], the 50% inhibitory concentration (IC50) was 1000 to 10000 nM in experiment [1] and under 100 nM in experiment [2].

Take `CNC(=O)c1ccccc1Nc1nc(Nc2ccc3c(c2)CN(CCOC)CCS3)ncc1Cl` [Example 522, 2-{5-Chloro-2-[8-(2-methoxy-ethyl)-6,7,8,9-tetrahydro-5-thia-8-aza-benzocyclohepten-2-ylamino]-pyrimidin-4-ylamino}-N-methyl-benzamide]: the half-inhibitory concentration (IC50) in experiment [1] was 100 to 1000 nM; in experiment [2], under 100 nM.

Turning to `CS(=O)(=O)Nc1ccccc1Nc1nc(Nc2ccc3c(c2)CNCCS3(=O)=O)ncc1Cl` [Example 523, N-{2-[5-Chloro-2(5,5dioxo-6,7,8,9-tetrahydro-5H-5lambda*6*-thia-8-aza-benzocyclohepten-2-ylamino)-pyrimidin-4-ylamino]-phenyl}-methanesulfonamide], the results for the IC50 in experiment [1] and in experiment [2] were 1000 to 10000 nM and 100 to 1000 nM, respectively.

As to `CS(=O)(=O)N[C@@H]1CCCC[C@H]1Nc1nc(Nc2ccc3c(c2)CNCCO3)ncc1Cl` [Example 524, N-{(1R,2R)-2[5-Chloro-2-(2,3,4,5-tetrahydro-benzo[f]oxazepin-7-ylamino)-pyrimidin-4-ylamino]-cyclohexyl}-methanesulfonamide], the IC50 was 1000 to 10000 nM in experiment [1] and under 100 nM in experiment [2].

As for `CS(=O)(=O)N[C@@H]1CCCC[C@H]1Nc1nc(Nc2ccc3c(c2)CN(CCO)CCS3)ncc1Cl` [Example 525, N-((1R,2R)-2-{-5-Chloro-2-[8-(2-hydroxy-ethyl)-6,7,8,9-tetrahydro-5-thia-8-azabenzo-cyclohepten-2-ylamino]-pyrimidin-4-ylamino}cyclohexyl)-methanesulfonamide], the values for the 50% inhibitory concentration (IC50) in experiment [1] and in experiment [2] were 1000 to 10000 nM and 100 to 1000 nM, respectively.

As for `CC(=O)OCCN1CCSc2ccc(Nc3ncc(Cl)c(N[C@@H]4CCCC[C@H]4NS(C)(=O)=O)n3)cc2C1` [Example 526, Acetic acid 2-{2-[5-chloro-4-((1R,2R)-2-methanesulfonylamino-cyclohexylamino)-pyrimidin-2-ylamino]-6,7-dihydro-9H-5-thia-8-aza-benzocyclohepten-8-yl}-ethyl ester], the half-inhibitory concentration (IC50) in experiment [1] is 1000 to 10000 nM; in experiment [2] it was under 100 nM.

Regarding `CNC(=O)c1ccccc1Nc1nc(Nc2ccc3c(c2)CN(CCOC(C)=O)CCS3)ncc1Cl` [Example 527, Acetic acid 2-{2-[5-Chloro-4-(2-methylcarbamoyl-phenylamino)-pyrimidin-2-ylamino]-6,7-dihydro-9H-5-thia-8-aza-benzoylcyclohepten-8-yl}-ethyl ester], the IC50 in experiment [1] and in experiment [2] was under 100 nM throughout.

Turning to `CNC(=O)c1ccccc1Nc1nc(Nc2ccc3c(c2)CN(CCO)CCS3)ncc1Cl` [Example 528, 2-{5-Chloro-2-[8-(hydroxyl-ethyl)-6,7,8,9-tetrahydro-5-thia-8-aza-benzoylcyclohepten-2-ylamino]-pyrimidin-4-ylamino}-N-methyl-benzamide], the concentration for half-maximal inhibition (IC50) in experiment [1] and in experiment [2] was under 100 nM each time.

Consider `CNC(=O)c1ccccc1Nc1nc(Nc2cccc3c2N(C)CCN(C)C3=O)ncc1Cl` [Example 541, 2-[5-Chloro-2-(1,4-dimethyl-5-oxo-2,3,4,5-tetrahydro-1H-benzo[e][1,4]diazepin-9-ylamino)-pyrimidin-4-ylamino]-N-methyl-benzamide], for which the IC50 is over 10000 nM in experiment [1] and 100 to 1000 nM in experiment [2].

For `CN1CCN(C)c2c(Nc3ncc(Cl)c(N[C@@H]4CCCC[C@H]4NS(C)(=O)=O)n3)cccc2C1=O` [Example 542, N-{(1R,2R)-2-[5-Chloro-2-(1,4-dimethyl-5-oxo-2,3,4,5-tetrahydro-1H-benzo[e][1,4]diazepin-9-ylamino)-pyrimidin-4-ylamino]-cyclohexyl} methanesulfonamide], the values for the IC50 in experiment [1] and in experiment [2] were over 10000 nM and under 100 nM, respectively.

For the compound `CNS(=O)(=O)c1ccccc1Nc1nc(Nc2cccc3c2N(C)CCN(C)C3=O)ncc1Cl` [Example 543, 2-[5-Chloro-2-(1,4-dimethyl-5-oxo-2,3,4,5-tetrahydro-1H-benzo[e][1,4]diazepin-9-ylamino)-pyrimidin-4-ylamino]-N-methyl-benzenesulfonamide], the half-maximal inhibitory concentration (IC50) was over 10000 nM in experiment [1] and 1000 to 10000 nM in experiment [2].

Take `CNC(=O)c1ccccc1Nc1nc(Nc2cccc3c2N(C)CCNC3=O)ncc1Cl` [Example 544, 2-[5-Chloro-2-(1-methyl-5-oxo-2,3,4,5-tetrahydro-1H-benzo[e][1,4]diazepin-9-ylamino)pyrimidin-4-ylamino]-N-methyl-benzamide]: the concentration for half-maximal inhibition (IC50) in experiment [1] is over 10000 nM; in experiment [2], under 100 nM.

Regarding `C=CCN1CCNC(=O)c2cccc(Nc3ncc(Cl)c(Nc4ccccc4C(=O)NC)n3)c21` [Example 545, 2-[2-(1-Allyl-5-oxo-2,3,4,5-tetrahydro-1H-benzo[e][1,4]diazepin-9-ylamino)-5-chloro-pyrimidin-4-ylamino]-N-methyl-benzamide], the IC50 in experiment [1] is over 10000 nM; in experiment [2], 1000 to 10000 nM.

On to `CCN1C(=O)CCCc2c1ccc(Nc1ncc(Cl)c(NC3C4C=CC(C4)C3C(=O)N(C)C)n1)c2OC` (stereo not drawn) [Example 602, (2-exo-3-exo)-3-[5-Chloro-2-(1-ethyl-6-methoxy-2-oxo-2,3,4,5-tetrahydro-1H-benzo[b]azepin-7-ylamino)-pyrimidin-4-ylamino]-bicyclo[2.2.1]hept-5-ene-2-carboxylic acid dimethylamide], for which the results for the 50% inhibitory concentration (IC50) in experiment [1] and in experiment [2] were over 10000 nM and 100 to 1000 nM, respectively.

As for `CCN1C(=O)CCCc2c1ccc(Nc1ncc(Cl)c(NC3C4C=CC(C4)C3C(=O)NC(C)C)n1)c2OC` (stereo not drawn) [Example 603, (2-exo-3-exo)-3-[5-Chloro-2-(1-ethyl-6-methoxy-2-oxo-2,3,4,5-tetrahydro-1H-benzo[b]azepin-7-ylamino)-pyrimidin-4-ylamino]-bicyclo[2.2.1]hept-5-ene-2-carboxylic acid isopropylamide], the half-maximal inhibitory concentration (IC50) in experiment [1] is over 10000 nM; in experiment [2], 100 to 1000 nM.
